# How the values were obtained:
# [1] = Antiviral activity against Foot-and-mouth disease virus O/JPN/2000 by plaque reduction assay; assay type: functional
# [2] = Antiviral activity against Respiratory syncytial virus A2 infected in Hep2 cells; assay type: functional, cell-based; conditions: human respiratory syncytial virus, HEp-2
# Ebolavirus [3] = experiment: Antiviral activity against Ebolavirus assessed as reduction in viral titer; assay type: functional; conditions: Orthoebolavirus
# Ebolavirus [4] = experiment: Antiviral activity against Ebola virus Mayinga Zaire 1976 infected in IFNAR-/- C57BL/6 mouse assessed as biochemical correlates of disease at 300 mg/kg, po administered twice daily; assay type: functional
# Ebolavirus [5] = experiment: Antiviral activity against Ebola virus Mayinga Zaire 1976 infected in IFNAR-/- C57BL/6 mouse at 300 mg/kg, po administered twice daily measured up to 6 days post infection; assay type: functional
# Ebolavirus [6] = experiment: Antiviral activity against Ebolavirus E718 infected in A129 interferon alpha/beta receptor knockout immunodeficient mouse assessed as survival rate at 150 mg/kg, po administered twice daily for 14 days measured after 2 weeks post last dose relative to control; assay type: functional; conditions: Orthoebolavirus, 336 h
# Ebolavirus [7] = experiment: Antiviral activity against Ebola virus Mayinga Zaire 1976 infected in IFNAR-/- C57BL/6 mouse assessed as survival at 300 mg/kg, po administered twice daily for 13 days measured after 3 weeks; assay type: functional; conditions: Orthoebolavirus
# Ebolavirus [8] = experiment: Antiviral activity against Ebolavirus E718 infected in Vero E6 cells assessed as effective dose after 6 days by neutral red stain based microscopic method; assay type: functional, Vero C1008
smiles,measurement,setting,value
NC(=O)c1nc(F)cnc1O [FAVIPIRAVIR],EC50,[1],12 µM
same,IC50,[2],41 µg/mL
same,IC50,Ebolavirus [3],67 µM
same,Activity,Ebolavirus [4],20%
same,Activity,Ebolavirus [5],100%
same,survival at 150 mg/kg,Ebolavirus [6],100%
same,survival at 300 mg/kg,Ebolavirus [7],100%
same,ED,Ebolavirus [8],400 µM
